Assay [1] concerns P. falciparum 3D7 trophozoites. Briefly: Metabolomic fingerprint profiling LC-MS. The class given is cell-based, Plasmodium falciparum. The arrangement: UDP-D-glucose / ADP-D-glucose: unit not given here.
The subject of a further assay is P. falciparum. Put plainly: EC50 listed in S2 Table Metabolomics (used to set the concentration tested). As to conditions: Plasmodium falciparum; EC50 used for Factor_XEC50 in metabolomics; read-out: EC50_nM. The class given is cell-based.
The target in another assay is PfPMT (Plasmodium falciparum, UniProt Q8IDQ9). Briefly: PfPMT gene replacement yeast growth. As to conditions: 100µM.
Sequence of PfPMT (Q8IDQ9 whole entry): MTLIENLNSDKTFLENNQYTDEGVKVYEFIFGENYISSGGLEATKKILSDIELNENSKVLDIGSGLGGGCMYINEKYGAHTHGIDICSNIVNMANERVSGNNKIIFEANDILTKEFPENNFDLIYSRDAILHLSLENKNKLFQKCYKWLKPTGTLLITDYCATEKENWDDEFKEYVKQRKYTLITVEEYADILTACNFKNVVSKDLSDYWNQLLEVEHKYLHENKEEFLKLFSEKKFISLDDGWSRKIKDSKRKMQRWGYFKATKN
The mark [2] stands for this setting: metabolite level change after treatment.

Take `CCc1ccc(Nc2cc(C)c3ccc(O)cc3n2)cc1` [MMV000570]: the Acetyllysine in assay [1] (S2 Table Metabolomics, metabolite Acetyllysine) is given as -3.5798. Also, the N-acetyl-L-ornithine in assay [1] (S2 Table Metabolomics, metabolite N-acetyl-L-ornithine) is reported as -2.11. The N-carbamoyl-L-aspartate in assay [1] (S2 Table Metabolomics, metabolite N-carbamoyl-L-aspartate) was -1.956. Also, in assay [1] (S2 Table Metabolomics, metabolite NADPH), the NADPH is listed as 0.5669. Further, the dAMP in assay [1] (S2 Table Metabolomics, metabolite dAMP) came to 0.09919. Moreover, the dCMP in assay [1] (S2 Table Metabolomics, metabolite dCMP) is reported as -0.6377. The dTDP in assay [1] (S2 Table Metabolomics, metabolite dTDP) worked out at 0.1581. For the same molecule, the dTMP in assay [1] (S2 Table Metabolomics, metabolite dTMP) is reported as 0.002348. Besides, the dTTP in assay [1] (S2 Table Metabolomics, metabolite dTTP) is given as -0.746. Besides, the dihydroorotate in assay [1] (S2 Table Metabolomics, metabolite dihydroorotate) is on record as -1.827. Also, in assay [1] (S2 Table Metabolomics, metabolite orotate), the orotate is recorded as -1.158. This molecule registered a DLH in assay [1] (S2 Table Metabolomics, peptide DLH) of -3.486. In assay [1] (S2 Table Metabolomics, peptide DLS/SDL/SID), this molecule displayed a DLS/SDL/SID of -2.98. The same molecule gave a PD in assay [1] (S2 Table Metabolomics, peptide PD) of -3.426. The same molecule displayed a PEE in assay [1] (S2 Table Metabolomics, peptide PEE) of -2.976. This molecule gave a PVNF in assay [1] (S2 Table Metabolomics, peptide PVNF) of -3.666. Moreover, in assay [1] (metabolite 3-phosphoglycerate, S2 Table Metabolomics), the 3-phosphoglycerate is recorded as -0.3004. The ADP-D-glucose in assay [1] (metabolite ADP-D-glucose, S2 Table Metabolomics) was -0.2531. Further, the ATP in assay [1] (metabolite ATP, S2 Table Metabolomics) was -0.4297. The CDP in assay [1] (metabolite CDP, S2 Table Metabolomics, change in metabolite level after compound treatment) is listed as 0.1199. In addition, the D-sedoheptulose-1/7-phosphate in assay [1] (metabolite D-sedoheptulose-1/7-phosphate, S2 Table Metabolomics, change in metabolite level after compound treatment) is -0.03599. Also, the FAD in assay [1] (metabolite FAD, S2 Table Metabolomics) worked out at 0.02687. Moreover, in assay [1] (metabolite GMP, S2 Table Metabolomics, change in metabolite level after compound treatment), the GMP was -0.7921. In addition, the “NAD+” value in assay [1] (metabolite NAD+, S2 Table Metabolomics) is reported as -0.005921. In assay [1] (metabolite NADP+, S2 Table Metabolomics), the “NADP+” value came to 0.04495. For the same molecule, the “Octoluse Bisphosphate” value in assay [1] (metabolite Octoluse Bisphosphate, S2 Table Metabolomics, change in metabolite level after compound treatment) is recorded as -0.7521. The Pyroglutamic acid in assay [1] (metabolite Pyroglutamic acid, S2 Table Metabolomics) is listed as 0.02528. Also, the UDP-D-glucose in assay [1] (metabolite UDP-D-glucose, S2 Table Metabolomics) is -0.0202. Also, in assay [1] (metabolite UDP-D-glucuronate, S2 Table Metabolomics), the UDP-D-glucuronate is -0.1762. In assay [1] (metabolite UDP-N-acetyl-glucosamine, S2 Table Metabolomics), the UDP-N-acetyl-glucosamine is reported as -0.01786. Also, in assay [1] (metabolite UDP, S2 Table Metabolomics, change in metabolite level after compound treatment), the UDP is 0.2064. The UMP in assay [1] (metabolite UMP, S2 Table Metabolomics, change in metabolite level after compound treatment) is on record as -0.3865. Moreover, the UTP in assay [1] (metabolite UTP, S2 Table Metabolomics, change in metabolite level after compound treatment) is -0.5565. Besides, in assay [1] (metabolite a-ketoglutarate, S2 Table Metabolomics), the a-ketoglutarate is recorded as -0.893. The citrate/isocitrate in assay [1] (metabolite citrate/isocitrate, S2 Table Metabolomics, change in metabolite level after compound treatment) is -0.9405. Moreover, the cytidine in assay [1] (metabolite cytidine, S2 Table Metabolomics) was 0.2459. The dATP in assay [1] (metabolite dATP, S2 Table Metabolomics) was found to be 0.202. For the same molecule, the dGMP/AMP in assay [1] (metabolite dGMP/AMP, S2 Table Metabolomics, change in metabolite level after compound treatment) was determined as 0.175. Also, the fumarate in assay [1] (metabolite fumarate, S2 Table Metabolomics, change in metabolite level after compound treatment) is listed as -1.642. In addition, the glucose-1/6-phosphate in assay [1] (metabolite glucose-1/6-phosphate, S2 Table Metabolomics, change in metabolite level after compound treatment) is recorded as -0.09278. The glycerate in assay [1] (metabolite glycerate, S2 Table Metabolomics, change in metabolite level after compound treatment) is on record as -0.2054. Moreover, the guanine in assay [1] (metabolite guanine, S2 Table Metabolomics, change in metabolite level after compound treatment) was -0.06952. The guanosine in assay [1] (metabolite guanosine, S2 Table Metabolomics, change in metabolite level after compound treatment) is recorded as -0.3954. Moreover, in assay [1] (metabolite hypoxanthine, S2 Table Metabolomics), the hypoxanthine was 0.06102. In assay [1] (metabolite indole, S2 Table Metabolomics), the indole was -0.08521. In addition, in assay [1] (metabolite inosine, S2 Table Metabolomics, change in metabolite level after compound treatment), the inosine is -0.1832. In addition, in assay [1] (setting [2]), the 2_3-Diphosphoglyceric acid is -0.3845, the 4-phosphopantothenate is reported as -0.2389, the 6-phospho-D-gluconate is recorded as -0.3077 and the FMN is -0.01655. Besides, in assay [1] (setting [2]), the IMP is -0.277, the Pyrophosphate turned out to be 0.07301, the Sedoheptoluse bisphosphate is -0.5323 and the cyclic-AMP was -0.9231. Also, in assay [1] (setting [2]), the glutathione disulfide was -0.5684, the lactate is listed as -0.3085 and the myo-inositol is listed as -0.5155. In addition, the nicotinate in assay [1] (metabolite nicotinate, S2 Table Metabolomics) turned out to be 0.1664. In addition, the ornithine in assay [1] (metabolite ornithine, S2 Table Metabolomics) was -0.4755. Besides, in assay [1] (metabolite phosphoenolpyruvate, S2 Table Metabolomics), the phosphoenolpyruvate is -0.0203. Also, the pyruvate in assay [1] (metabolite pyruvate, S2 Table Metabolomics, change in metabolite level after compound treatment) was 0.06241. In addition, in assay [1] (metabolite ribose-phosphate, S2 Table Metabolomics), the ribose-phosphate is given as -0.6825. In addition, the sarcosine/alanine in assay [1] (metabolite sarcosine/alanine, S2 Table Metabolomics, change in metabolite level after compound treatment) is -1.674. Further, the sn-glycerol-3-phosphate in assay [1] (metabolite sn-glycerol-3-phosphate, S2 Table Metabolomics) is listed as -0.5868. Also, the succinate/methylmalonic acid in assay [1] (metabolite succinate/methylmalonic acid, S2 Table Metabolomics, change in metabolite level after compound treatment) is listed as -0.5023. For the same molecule, the uridine in assay [1] (metabolite uridine, S2 Table Metabolomics, change in metabolite level after compound treatment) is -0.4463. Also, the xanthosine in assay [1] (metabolite xanthosine, S2 Table Metabolomics, change in metabolite level after compound treatment) is -1.566. The EC50 with P. falciparum came out at 194 nM. Besides, the “candidate inhibitors of PfPMT activity (yeast functional assay)” value (from here on “candidate inhibitors”) on PfPMT was “candidate inhibitors of PfPMT activity”.

As to `CN1c2ccccc2N(C)C1c1ccc2c(c1)OCO2` [MMV666009], on PfPMT, the “candidate inhibitors” value is “candidate inhibitors of PfPMT activity”.

As to `COc1cc(C(=O)ON=C(N)Cc2cccc3ccccc23)cc(OC)c1OC` [MMV666687], on PfPMT, the “candidate inhibitors” value is “candidate inhibitors of PfPMT activity”.

In the case of `COc1ccc(C2c3ccc4ccccc4c3Oc3ncn(CCCN(C)C)c(=N)c32)cc1` (stereo not drawn) [MMV667491], at PfPMT, the “candidate inhibitors” value is “candidate inhibitors of PfPMT activity”.

The values are drawn from paper PMC4965013, “Open Source Drug Discovery with the Malaria Box Compound Collection for Neglected Diseases and Beyond” (PLoS Pathogens, 2016).
